Experimental data as given in US20250122166A1, “SUBSTITUTED N-((2-(2,6-DIOXOPIPERIDIN-3-YL)-1-OXOISOINDOLIN-4-YL)METHYL)BENZAMIDE ANALOGS AS MODULATORS OF CEREBLON PROTEIN” (ST. JUDE CHILDREN'S RESEARCH HOSPITAL, INC., priority 2021, published 2025).

What was measured:
MOLM-13 cells = assay: Cell proliferation assay (Cell Titer-Glo, 72 h); assay type: cell-based; details: Homo sapiens, 72 h incubation, * = cytostatic 50%
Experimental: MOLM-13 cell line was purchased from the Leibniz Institute DSMZ (ACC 554). The cells were cultured according to recommendations in RPMI 1640 cell culture media with 20% FBS (DSMZ). Exponentially growing MOLM-13 cells were plated at 1250 cells per well in Corning 8804BC white 384-well assay plates and incubated overnight at 37° C. in a humidified 5% CO2 incubator. Compounds were transferred to the assay plate from a dose-response plate using a Pintool on a Biomek FXP Laboratory Automation Workstation (Beckman Coulter). Cytotoxicity was determined following 72 hours of incubation using Promega Cell Titer Glo reagent according to the manufacturer's recommendation. Luminescence was measured on an Envision plate reader (Perkin-Elmer).
Compounds were screened in human cancer cell lines and each cell line was cultured in the complete medium recommended by the vendor and seeded in Corning 8804BC white 384-well assay plates at density of 1250 cells per well for MOLM-13 cells. After overnight incubation at 37° C. in a humidified 5% CO2 incubator, cells were treated with compounds in dose-response format using a Pintool on a Biomek FXP Laboratory Automation Workstation (Beckman Coulter). After 72h incubation, cell proliferation was assessed using Cell Titer-Glo (CTG) luminescent cell viability assay (Promega) according to the manufacturer's instruction. Luminescence signal was measured using an Envision plate reader (Perkin-Elmer).

6XHis-CRBN-DDB1 protein = 6XHis-CRBN-DDB1 protein (Homo sapiens (Human), UniProt Q96SW2); assay: CRBN fluorescence polarization assay (competitive, Cy5-O-Len probe); assay type: binding; details: 6XHis-CRBN-DDB1 200 nM, Cy5-O-Len probe 30 nM, 1 hour; mean of three determinations; read-out: CRBN FP (IC50)
Experimental: In this competitive fluorescent polarization assay Cy5 conjugated lenalidomide analog (Cy5—O-Len)^1 was used as a fluorescent probe. 6XHis-CRBN-DDB1 protein (200 nM) and Cy5—O-Len probe (30 nM) were combined in 20 mM HEPES pH 7, 150 mM NaCl, 0.005% Tween-20 assay buffer. 20 μL of this assay cocktail was dispensed into wells of Corning 3821 black 384-well plates. Compounds were transferred to the assay plate from a dose-response plate using a Pintool on a Biomek FXP Laboratory Automation Workstation (Beckman Coulter). The plates were incubated in the dark for 1 hour at room temperature and then read on an Envision plate reader (PerkinElmer, Massachusetts, USA). IC50 values were determined using a proprietary software RISE (Robust Investigation of Screening Experiments), developed in house on the Pipeline Pilot platform (Biovia, v. 17.2.0). Data represent the mean of three independent determinations.

neosubstrate degradation = details: relative to lenalidomide; cited from earlier work

Row | EC50 (MOLM-13 cells) | IC50 (6XHis-CRBN-DDB1 protein) | Compound | fold more potent in cells than lenalidomide (neosubstrate degradation)
1 | < 1 µM | 1 to 10 µM | O=C1CCC(N2Cc3c(CNC(=O)c4ccc(C(F)(F)F)c(F)c4)cccc3C2=O)C(=O)N1 (stereo not drawn) [Compound 16, N-((2-(2,6-dioxopiperidin-3-yl)-1-oxoisoindolin-4-yl)methyl)-3-fluoro-4-(trifluoromethyl)benzamide] | 
2 | < 1 µM | 1 to 10 µM | O=C1CCC(N2Cc3c(CNC(=O)c4cccc(C(F)F)c4)cccc3C2=O)C(=O)N1 (stereo not drawn) [Compound 23, 3-(difluoromethyl)-N-((2-(2,6-dioxopiperidin-3-yl)-1-oxoisoindolin-4-yl)methyl)benzamide] | 
3 |  |  | O=C1CC[C@H](N2Cc3c(OCc4ccc(CN5CCOCC5)cc4)cccc3C2=O)C(=O)N1 [CC-220] | 10 fold
4 | < 1 µM | 1 to 10 µM | O=C1CCC(N2Cc3c(CNC(=O)c4ccc(F)cc4)cccc3C2=O)C(=O)N1 (stereo not drawn) [Compound 7, N-((2-(2,6-dioxopiperidin-3-yl)-1-oxoisoindolin-4-yl)methyl)-4-fluorobenzamide] | 
5 | < 1 µM | < 1 µM | O=C1CCC(N2Cc3c(CNC(=O)c4cccc5cc[nH]c45)cccc3C2=O)C(=O)N1 (stereo not drawn) [Compound 38, N-((2-(2,6-dioxopiperidin-3-yl)-1-oxoisoindolin-4-yl)methyl)-1H-indole-7-carboxamide] | 
6 | < 1 µM | < 1 µM | N#Cc1cccc(C(=O)NCc2cccc3c2CN(C2CCC(=O)NC2=O)C3=O)c1 (stereo not drawn) [Compound 26, 3-cyano-N-((2-(2,6-dioxopiperidin-3-yl)-1-oxoisoindolin-4-yl)methyl)benzamide] | 
7 | < 1 µM | 1 to 10 µM | O=C1CCC(N2Cc3c(CNC(=O)c4ccccc4Cl)cccc3C2=O)C(=O)N1 (stereo not drawn) [Compound 46, 2-chloro-N-((2-(2,6-dioxopiperidin-3-yl)-1-oxoisoindolin-4-yl)methyl)benzamide] | 
8 | < 1 µM | < 1 µM | O=C1CCC(N2Cc3c(CNC(=O)c4ccc(Cl)cc4F)cccc3C2=O)C(=O)N1 (stereo not drawn) [Compound 36, 4-chloro-N-((2-(2,6-dioxopiperidin-3-yl)-1-oxoisoindolin-4-yl)methyl)-2-fluorobenzamide] | 
9 | < 1 µM | 1 to 10 µM | O=C1CCC(N2Cc3c(CNC(=O)c4cccc(F)c4)cccc3C2=O)C(=O)N1 (stereo not drawn) [Compound 9, N-((2-(2,6-dioxopiperidin-3-yl)-1-oxoisoindolin-4-yl)methyl)-3-fluorobenzamide] | 
10 | > 10 µM | 1 to 10 µM | O=C(Cc1ccccc1Br)NCc1cccc2c1CN(C1CCC(=O)NC1=O)C2=O (stereo not drawn) [Compound 41, 2-(2-bromophenyl)-N-((2-(2,6-dioxopiperidin-3-yl)-1-oxoisoindolin-4-yl)methyl)acetamide] | 
11 | < 1 µM | < 1 µM | O=C1CCC(N2Cc3c(CNC(=O)c4ccc(F)c(Cl)c4)cccc3C2=O)C(=O)N1 (stereo not drawn) [Compound 15, 3-chloro-N-((2-(2,6-dioxopiperidin-3-yl)-1-oxoisoindolin-4-yl)methyl)-4-fluorobenzamide] | 
12 | < 1 µM | 1 to 10 µM | O=C1CCC(N2Cc3c(CNC(=O)c4cccc(OC(F)(F)F)c4)cccc3C2=O)C(=O)N1 (stereo not drawn) [Compound 20, N-((2-(2,6-dioxopiperidin-3-yl)-1-oxoisoindolin-4-yl)methyl)-3-(trifluoromethoxy)benzamide] | 
13 | > 10 µM | 1 to 10 µM | O=C1CCC(N2Cc3c(CNC(=O)c4ccccc4C(F)(F)F)cccc3C2=O)C(=O)N1 (stereo not drawn) [Compound 4, N-((2-(2,6-dioxopiperidin-3-yl)-1-oxoisoindolin-4-yl)methyl)-2-(trifluoromethyl)benzamide] | 
14 | < 1 µM | 1 to 10 µM | O=C1CCC(N2Cc3c(CNC(=O)c4ccccc4Nc4ccccc4)cccc3C2=O)C(=O)N1 (stereo not drawn) [Compound 45, N-((2-(2,6-dioxopiperidin-3-yl)-1-oxoisoindolin-4-yl)methyl)-2-(phenylamino)benzamide] | 
15 | > 10 µM | > 10 µM | COc1ccc(C(=O)NCc2cccc3c2CN(C2CCC(=O)NC2=O)C3=O)cc1 (stereo not drawn) [Compound 25, N-((2-(2,6-dioxopiperidin-3-yl)-1-oxoisoindolin-4-yl)methyl)-4-methoxybenzamide] | 
16 | < 1 µM | 1 to 10 µM | COc1ccccc1C(=O)NCc1cccc2c1CN(C1CCC(=O)NC1=O)C2=O (stereo not drawn) [Compound 29, N-((2-(2,6-dioxopiperidin-3-yl)-1-oxoisoindolin-4-yl)methyl)-2-methoxybenzamide] | 
17 | < 1 µM | < 1 µM | O=C1CCC(N2Cc3c(CNC(=O)c4ccc(F)c(C(F)(F)F)c4)cccc3C2=O)C(=O)N1 (stereo not drawn) [Compound 22, N-((2-(2,6-dioxopiperidin-3-yl)-1-oxoisoindolin-4-yl)methyl)-4-fluoro-3-(trifluoromethyl)benzamide] | 
18 | > 10 µM | 1 to 10 µM | Cc1ccc(F)cc1C(=O)NCc1cccc2c1CN(C1CCC(=O)NC1=O)C2=O (stereo not drawn) [Compound 32, N-((2-(2,6-dioxopiperidin-3-yl)-1-oxoisoindolin-4-yl)methyl)-5-fluoro-2-methylbenzamide] | 
19 | < 1 µM | 1 to 10 µM | O=C1CCC(N2Cc3c(CNC(=O)c4ccc(C(F)F)cc4)cccc3C2=O)C(=O)N1 (stereo not drawn) [Compound 24, 4-(difluoromethyl)-N-((2-(2,6-dioxopiperidin-3-yl)-1-oxoisoindolin-4-yl)methyl)benzamide] | 
20 | > 10 µM | < 1 µM | O=C1CCC(N2Cc3c(CNC(=O)c4cc(C(F)(F)F)cc(Cl)c4F)cccc3C2=O)C(=O)N1 (stereo not drawn) [Compound 35, 3-chloro-N-((2-(2,6-dioxopiperidin-3-yl)-1-oxoisoindolin-4-yl)methyl)-2-fluoro-5-(trifluoromethyl)benzamide] | 
